Here are results for one compound from patent US20030044413A1, “Methods of limiting apoptosis of cells” (Regents of the University of Minnesota, priority 1998, published 2003).

As usually defined, the cell viability is a read-out of living cells in per cent, often relative to untreated cells. The term inhibition denotes the share of the control response that was lost under treatment.

What all share (format): cell-based
The test system of one assay is primary rat hepatocytes. Description: Ethanol-induced apoptosis, Hoechst staining, primary rat hepatocytes. The procedure:
Incubation of cells with ethanol, TGF-β1, anti-Fas antibody or okadaic acid. Freshly isolated rat hepatocytes were cultured for 3 h as described above and then incubated with William's E medium supplemented with either 0.5% ethanol, 50 μM UDCA, ethanol plus UDCA, or no addition (control) for 2 h and 4 h. HuH-7 cells were incubated with Dulbecco's medium supplemented with either 1 nM TGF-β1 (R & D Systems, Minneapolis, Minn.), 100 μM UDCA, TGF-β1+UDCA, or no addition (control) for 24 h, 48 h, and 72 h. Hep G2 cells were incubated with Dulbecco's medium supplemented with either 0.5 μg/ml of anti-Fas antibody CH-11 (Upstate Biotechnology, Inc., Lake Placid, N.Y.), 100 μM UDCA, CH-11+UDCA, or no addition for 48 h. Both HuH-7 cells and human osteogenic sarcoma Saos-2 cells were cultured in Dulbecco's medium supplemented with either 50 nM okadaic acid (Boehringer Mannheim Biochemicals, Inc, Indianapolis, Ind.), 100 μM UDCA, okadaic acid+UDCA, or no addition for 48 h. In all the combination groups, cells were pretreated with UDCA alone for 60 min prior to addition of ethanol, TGF-β1, anti-Fas antibody or okadaic acid.
Morphological evaluation of apoptosis. Morphology was performed as described previously (Oberhammer et al., Proc. Natl. Acad. Sci. USA 89, 5408-5412 (1992)). Briefly, after fixation (with 4% formaldehyde in PBS, pH 7.4, for 10 min at room temperature), the cells were incubated with Hoechst dye 33258 (Sigma Chemical Co.) at 5 μg/ml in PBS for 5 min, washed with PBS and mounted with PBS:glycerol (3:1, v/v). Fluorescence was visualized with a Zeiss standard fluorescence microscope (Carl Zeiss, Inc., Thornwood, N.Y.). Photographs were taken with Kodak Ektar-1000 film (Eastman Kodak Co.). Stained nuclei were scored by blind analysis and categorized according to the condensation and staining characteristics of chromatin. Normal nuclei were identified as noncondensed chromatin dispersed over the entire nucleus. Apoptotic nuclei were identified by condensed chromatin, contiguous to the nuclear membrane, as well as nuclear fragmentation of condensed chromatin. Three fields per dish of approximately 500 nuclei were counted; mean values are expressed as the percent of apoptotic nuclei.

Assay [1] relates to hepatocytes, HuH-7, Hep G2 and Saos-2 cells. Description: Coadministration of UDCA with each apoptosis-inducing agent, all cell types. How it is done: Incubation of cells with bile acids. […] The medium was gently removed at the indicated time points and scored for nonviable cells by trypan blue dye exclusion. The attached cells were fixed for morphologic assessment of apoptotic changes. […] HuH-7 cells were incubated with Dulbecco's medium supplemented with either 1 nM TGF-β1 (R & D Systems, Minneapolis, Minn.), 100 μM UDCA, TGF-β1+UDCA, or no addition (control) for 24 h, 48 h, and 72 h. Hep G2 cells were incubated with Dulbecco's medium supplemented with either 0.5 μg/ml of anti-Fas antibody CH-11 (Upstate Biotechnology, Inc., Lake Placid, N.Y.), 100 μM UDCA, CH-11+UDCA, or no addition for 48 h. […] Morphological evaluation of apoptosis. Morphology was performed as described previously (Oberhammer et al., Proc. Natl. Acad. Sci. USA 89, 5408-5412 (1992)). […] Fluorescence was visualized with a Zeiss standard fluorescence microscope (Carl Zeiss, Inc., Thornwood, N.Y.). Photographs were taken with Kodak Ektar-1000 film (Eastman Kodak Co.). Stained nuclei were scored by blind analysis and categorized according to the condensation and staining characteristics of chromatin. Normal nuclei were identified as noncondensed chromatin dispersed over the entire nucleus. Apoptotic nuclei were identified by condensed chromatin, contiguous to the nuclear membrane, as well as nuclear fragmentation of condensed chromatin.

The test system of the next assay is Hep G2 cells. As to the kind of experiment: FACS analysis of ΔΨm and ROS, Hep G2 cells. The procedure:
A ΔΨm and ROS measurement. ΔΨm and ROS production were measured by FACScan (Becton Dickinson) analysis. Freshly isolated rat hepatocytes were cultured for 3 h as described above and then incubated with William's E medium supplemented with either 100 μM DCA, 100 μM UDCA, equal molar amounts of both, or no bile acid (control), for 6 h. Rat hepatocytes were also cultured with either 1% ethanol, 100 μM UDCA, ethanol+UDCA, or no addition (control) for 4 h. HuH-7 cells, Hep G2 cells, and human osteogenic sarcoma Saos-2 cells were incubated with TGF-β1, anti-Fas antibody or okadaic acid, respectively, for 48 h under the same conditions as outlined above. For combination studies, cells were pretreated with UDCA or hyodeoxycholic acid for 60 min prior to addition of DCA, ethanol, TGF-β1, anti-Fas antibody or okadaic acid. Aliquots of 1.0×10^6 cells were incubated for 15 min at 37° C. with 50 nM 3,3′-dihexyloxacarbocyanine iodide [DiOC6(3)], 2 μM dihydroethidium (HE), or 5 μM 2′,7′-dichlorofluorescin diacetate (H2DCFDA; Molecular Probes, Inc. Eugene, Oreg.) and analyzed by cytofluorometry (Cathcart et al., Anal. Biochem., 134, 111-116 (1983); Zamzami et al., J. Exp. Med., 181, 1661-1672 (1 995); Carter et al., J. Leukocyte Biol., 55, 253-258 (1994)).
Rat primary hepatocytes were incubated with 100 μM DCA and 1% ETOH for 6 h and 4 h, respectively; HuH-7 cells with 1 nM TGF-β1 for 48 h; Hep G2 cells with 0.5 μg/ml anti-Fas antibody (CH-11) for 48 h, and Saos-2 cells with 50 nM okadaic acid (OA) for 48 h. In each combination group, cells were pretreated with 100 μM UDCA alone for 60 min prior to addition of the inducer. Aliquots of 1.0×10^6 cells were incubated for 15 min at 37° C. with 5 μM 2′,7′-dichlorofluorescin diacetate (H2DCFDA) and analyzed by cytofluorometry.
For orientation: Flow cytometry measures light scatter and fluorescence of single cells or particles in a stream.

The mark [2] stands for this setting: inducer CH-11, Hep G2, inhibition by UDCA.

Regarding `C[C@H](CCC(=O)O)[C@H]1CC[C@H]2[C@@H]3[C@@H](O)C[C@@H]4C[C@H](O)CC[C@]4(C)[C@H]3CC[C@]12C` [UDCA, ursodeoxycholic acid], the cell viability in the assay with primary rat hepatocytes (0.5% ethanol + 50 μM UDCA) was determined as 79.5±7.9%. The “Inhibition % Apoptosis” value in the assay with primary rat hepatocytes (inducer ETOH, hepatocytes, inhibition by UDCA) was determined as 75.9 ± 13.8%. Further, the “inhibition of apoptotic changes” value in assay [1] is given as 50-100%. Besides, the “Peroxides Production (%) Inducer + UDCA” value in the assay with Hep G2 cells (0.5 μg/ml CH-11 48 h, 100 μM UDCA pretreatment 60 min) is 6.2 ± 1.3 %. Besides, the inhibition at 100 µM in the assay with Hep G2 cells (Homo sapiens, HepG2, inducer CH-11, Hep G2, 100 μM UDCA, read-out: % Inhibition of peroxides production) came out at 52.2 ± 14.9%. Further, in the assay on Hep G2 cells (setting [2]), the “Inhibition % Superoxide Anion” value worked out at 55.1 ± 10.8 % and the “Inhibition % _Ψm” value was determined as 63.1 ± 11.9%.
